The record followed here is US20080161330A1, “Pyrimidines as Igf-I Inhibitors” (ASTRAZENECA AB, priority 2005, published 2008).

Structures are written as SMILES. Like-named read-outs stand apart in the source and are kept apart here.

The assay relates to murine fibroblasts (NIH3T3) over-expressing human IGF-1 receptor. Nature of the assay: Inhibition of IGF-stimulated cell proliferation (BrdU incorporation), Test (c). The class given is cell-based. How it is done:
The construction of murine fibroblasts (NIH3T3) over-expressing human IGF-1 receptor has been described by Lammers et al (EMBO J, 8, 1369-1375, 1989). These cells show a proliferative response to IGF-I which can be measured by BrdU incorporation into newly synthesised DNA. Compound potency was determined as causing inhibition of the IGF-stimulated proliferation in the following assay:
Compounds are initially dissolved in DMSO to 10 mM, followed by dilutions in DMEM+1% FCS+glutamine to give a range from […] in 1-0.00045% DMSO final concentration in assay well.
Exponentially growing NIH3T3/IGFR cells were harvested and seeded in complete growth medium into a flat-bottomed 96 well tissue culture grade plate (Costar 3525) at 1.2×10^4 cells per well in a volume of 100 μl.
Growth medium was carefully removed from each well using a multi-channel pipette. Wells were carefully rinsed three times with 200 μl with HBSS. […] of starvation medium was added to each well and the plate was re-incubated for 24 hours.
50 μl of a 4× concentrate of test compound was added to appropriate wells. Cells were incubated for 30 minutes with compound alone before the addition of IGF. […]
The incorporation of BrdU in the cells (after a 4 h incorporation period) was assessed using the BrdU Cell Proliferation Elisa according to the manufacturer's protocol.
(Uptake of a labelled nucleoside into DNA is a usual measure of proliferation.)

A word on the IC50: it is the midpoint of a concentration-inhibition curve. High values mean weaker potency in that assay, low ones greater potency in that assay. Consider `Cc1cc(Nc2nc(N3C[C@H](O)C[C@H]3c3cc(-c4ccccn4)no3)ncc2Cl)n[nH]1` [Example 3, 5-Chloro-2-{(2S4R)-4-hydroxy-2-[3-(pyrid-2-yl)isoxazol-5-yl]pyrrolidin-1-yl}-4-(5-methyl-1H-pyrazol-3-ylamino)pyrimidine], for which the IC50 is 0.8 µM. Regarding `Cc1cc(Nc2nc(N3C[C@@H](O)C[C@H]3c3cc(-c4ccccn4)no3)ncc2Cl)n[nH]1` [Example 4, 5-Chloro-2-[(2S,4S)-4-hydroxy-2-[3-(pyrid-2-yl)isoxazol-5-yl]pyrrolidin-1-yl]-4-(5-methyl-1H-pyrazol-3-ylamino)pyrimidine], the midpoint of inhibition (Mus musculus), the IC50, lay at 0.93 µM.
